Series [1] relates to humans exposed. Conditions: clinical effects observed, cited from earlier work.
Series [2] has as its system HMEC cells. Description: Micronuclei per 100 cells 24 h after contacting, Table 4 lower part (HMEC). The format is cell-based, human. Particulars: line cell blank (below Hasp). As to the method:
(§1) In one embodiment, on receipt, the tissue sample (typically the biopsy) is established in the form of an amplifiable cell line without a viral or chemical transformation agent according to an ancillary procedure well known to culture laboratories, as underlined by the publication of Elkind et al. “The radiobiology of cultured mammalian cell”, Gordon and Breach (1967). Once the number of cells is sufficient (typically after 1 to 3 weeks), the first experiments are carried out using the process according to the invention. A cell sample is prepared: The cells are inoculated on glass coverslips in Petri dishes. A portion of these coverslips are contaminated with metals or pesticides or any other DNA-breaking chemical or biochemical agent at different concentrations. A further portion is not contaminated; it represents the spontaneous state. During contamination, the cells remain in the culture incubator at 37° C.
(§2) the cells are fixed in 3% paraformaldehyde and 2% sucrose for 15 minutes at ambient temperature and permeabilized in 20 mM HEPES buffer solution (4-(2-hydroxyethyl)-1-piperazine ethane sulfonic acid) at pH 7.4, 50 mM NaCl, 3 mM MgCl2, 300 mM sucrose, 0.5% Triton X-100 (a non-ionic surfactant having the formula t-Oct-C6H4-(OCH2CH2)×OH where x=9-10, CAS No. 9002-93-1, supplied for example by Sigma Aldrich) for 3 minutes. The glass coverslips are then washed in phosphate buffer saline (known as the acronym PBS) before immunological staining. The incubation took place for 40 min at 37° C. in PBS supplemented with 2% bovine serum albumin (known as the acronym BSA or fraction V, supplied for example by Sigma Aldrich) and was followed by a wash with PBS. Anti-pH2AX primary antibodies are used at a concentration of 1:800. The incubations with anti-mouse FITC or anti-rabbit TRITC secondary antibodies (1:100, supplied by Sigma Aldrich) were performed at 37° C. in 2% BSA for 20 minutes. Glass coverslips were treated with Vectashield™ containing DAPI (4,6-Diamidino-2-phenylindole) to label the nucleus. Staining with DAPI also makes it possible, indirectly, to determine the number of cells in phase G1 (nuclei with homogenous DAPI staining), in phase S (nuclei with numerous pH2AX foci), in phase G2 (nuclei with heterogeneous DAPI staining) and metaphases (visible chromosomes).
(§3) Counterstaining with DAPI (a DNA marker known to those skilled in the art) makes it possible to locate the nucleus to situate the cytoplasmic or nuclear location to quantify the micronuclei, which are complementary cell markers to the data on the foci.
(§4) The tables hereinafter summarize the results of numerous experiments which were carried out as described in the “Detailed description” section above.
(§5) In tables 3 and 4, “pH2AX” corresponds to the mean number of nuclear foci obtained with the marker pH2AX, 24 hours after contacting the cell sample with the chemical agent at the concentration C (NpH2AX(24 h, C)), and where “Micronuclei” corresponds to the mean number of micronuclei observed per 100 cells 24 hours after contacting the cell sample with the chemical agent at the concentration C(NMN(24 h, C)).

For series [3], the system named is pH2AX nuclear foci (DNA double-strand breaks). Description: Single toxicity scale: reference concentration Cref and risk group prediction from NpH2AX(24 h). The format is cell-based, human. Conditions: for Reference concentration Cref: NpH2AX(24 h) < 2, determined from data of table 4. As to the method: (i) if the reference concentration has not previously been determined by the chemical or biochemical agent to be studied, a cell sample is prepared by dispersion and/or amplification of so-called reference cells (sensitivity group I); a plurality of concentrations within a broad concentration range of said breaking agent (said concentration range ranging for example from nM to mM) is applied for a predetermined period of time (preferably 24 hours) on this cell sample; pH2AX immunofluorescence is performed with DAPI counterstaining which also enables on the same cell sample the analysis of micronuclei for all the concentrations applied.
(ii) Either the mean number of nuclear foci observed with the marker pH2AX at the observation times t and at the concentration C (this mean number being referred to as NpH2AX(t, C)), or the mean number of micronuclei per 100 cells at the observation times t and at the concentration C (this mean number being referred to as NMN(t, C)), or the standard error a corresponding to the error committed on these respective measurements which must be performed on at least 50 nuclei once (Gaussian standard error) or 3 independent experiments of 50 nuclei (standard error of the mean).
(iii) The so-called reference concentration Cref is the concentration giving:
NpH2AX(24 h,Cref)+2σ=2 or indeed NMN(24 h,Cref)+2σ=2%;
If for the cell sample NpH2AX(24 h, Cref)<=2 or NMN(24 h, Cref)<=0.5%, preferably NMN(24 h, Cref)<=1% or even more preferentially NMN(24 h, Cref)<=2%, then the genotoxic risk is considered to be low or described as “Group I”
The experimental data presented in table 4 above were used to determine the reference concentration Cref particularly for Pb(NO3)2 (Cref<1 μM) and CdCl2 (Cref=10 μM).
Table 5 presents numerical examples of correspondence between the single toxicity scale according to the invention and the corresponding clinical signs.

Series [4] concerns HMEC cells. The series is described as follows: pH2AX foci 24 h after contacting, Table 4 lower part (HMEC endothelial cells). Conditions: line cell blank (below Hasp), 24 hours after contacting. Type of series: cell-based, human. The protocol:
as §1
(§6) For the contaminated cells, characteristics are acquired corresponding to the state after an incubation time with the DNA-breaking chemical or biochemical agent. Said characteristics are represented by foci corresponding to the marker pH2AX. The cells on glass coverslips are then fixed, lysed and hybridized. The following procedure, known per se (Bodgi et al, “A single formula to describe radiation-induced protein relocalization: towards a mathematical definition of individual radiosensitivity”, J Theor Biol. 21 p 333:135-45.2013):
as §2
The results are acquired using these coverslips on an immunofluorescence microscope (Olympus model for example). The reading may be direct (typically by counting the foci on at least 50 cells in G0/G1 for each point) or using dedicated image analysis software, or on an automated microscope; preferably the software or automated microscope methods are calibrated with manual determinations.
as §4, §5

The subject of series [5] is 01PAU cells. The series is described as follows: pH2AX foci 24 h after contacting, 01PAU. Type of series: cell-based, human. As to the method: as §1, §6
(§7) the cells are fixed in 3% paraformaldehyde and 2% sucrose for 15 minutes at ambient temperature and permeabilized in 20 mM HEPES buffer solution (4-(2-hydroxyethyl)-1-piperazine ethane sulfonic acid) at pH 7.4, 50 mM NaCl, 3 mM MgCl2, 300 mM sucrose, 0.5% Triton X-100 (a non-ionic surfactant having the formula t-Oct-C6H4-(OCH2CH2)×OH where x=9-10, CAS No. 9002-93-1, supplied for example by Sigma Aldrich) for 3 minutes. The glass coverslips are then washed in phosphate buffer saline (known as the acronym PBS) before immunological staining. The incubation took place for 40 min at 37° C. in PBS supplemented with 2% bovine serum albumin (known as the acronym BSA or fraction V, supplied for example by Sigma Aldrich) and was followed by a wash with PBS. Anti-pH2AX primary antibodies are used at a concentration of 1:800. […]
(§8) The results are acquired using these coverslips on an immunofluorescence microscope (Olympus model for example). The reading may be direct (typically by counting the foci on at least 50 cells in G0/G1 for each point) or using dedicated image analysis software, or on an automated microscope; preferably the software or automated microscope methods are calibrated with manual determinations. […]

Series [6] relates to 01PAU cells. Description: Micronuclei per 100 cells 24 h after contacting, 01PAU. The format is cell-based, human. As to the method:
as §1, §2, §3
(§9) The tables hereinafter summarize the results of numerous experiments which were carried out as described in the “Detailed description” section above. […]

The subject of series [7] is 08HNG cells. Description: Micronuclei per 100 cells 24 h after contacting, 08HNG. Type of series: cell-based, human. As to the method:
as §1, §2, §3, §9

The test system of series [8] is 08HNG cells. Description: pH2AX foci 24 h after contacting, 08HNG. Type of series: cell-based, human. As to the method:
as §1, §6, §7, §8

As to `O=[N+]([O-])[O-].O=[N+]([O-])[O-].[Pb+2]` [Pb(NO3)2], the “Onset of signs of saturnism, concentration in blood” value in series [1] is “Onset of signs of saturnism above 100 μg/l of μg/l of blood”. For the same compound, the “Onset of signs of saturnism, corresponding concentration” value in series [1] (corresponding to 100 μg/l of blood) is reported as “blood corresponding to approximately 2 μM”. In addition, the Micronuclei in series [2] (10 μM) worked out at 0 per 100 cells; in series [2] (30 μM) it was 7 per 100 cells; in series [2] (100 μM) it was 12 per 100 cells; in series [2] (300 μM), 20 per 100 cells; in series [2] (1000 μM), 10 per 100 cells. The results for the “Reference concentration Cref” value in series [3] and in series [3] (listed as Lead) were < 1 µM and <1 µM, respectively. The “Prediction based on algorithm: concentration above which “Group III” risk” value in series [3] (NpH2AX(24 h) > 8) is > 30 µM. Besides, the pH2AX was 4 foci in series [4] (10 μM), 7.5 foci in series [4] (30 μM), 15 foci in series [4] (100 μM) and 21 foci in series [4] (300 μM).

Consider `CC1(C)C(C=C(Cl)Cl)C1C(=O)OCc1cccc(Oc2ccccc2)c1` (stereo not drawn) [Permethrin], for which the pH2AX in series [5] (0.3 μM) is recorded as 0.1 foci; in series [5] (1 μM), 0.2 foci; in series [5] (5 μM), 1.3 foci; in series [5] (10 μM), 1.8 foci. Further, the Micronuclei in series [6] (0.3 μM) is given as 2 per 100 cells; in series [6] (1 μM), 2 per 100 cells; in series [6] (5 μM), 4 per 100 cells; in series [6] (10 μM), 6 per 100 cells.

Regarding `c1ccc2[nH]c(-c3cscn3)nc2c1` [Thiobendazole], the Micronuclei in series [7] (0.3 μM) turned out to be 2 per 100 cells; in series [7] (1 μM), 4 per 100 cells; in series [7] (3 μM), 10 per 100 cells; in series [7] (10 μM), 10 per 100 cells. Also, the pH2AX in series [8] (0.3 μM) came to 1.8 foci; in series [8] (1 μM), 2 foci; in series [8] (3 μM) it was 4.3 foci; in series [8] (10 μM) it was 6 foci.
